# Experimental data as given in publication PMC5684418, “Structural remodeling and oligomerization of human cathelicidin on membranes suggest fibril-like structures as active species” (Scientific Reports, 2017).
# Ends that are not written are not given here.
# Experiments:
# [1] = Peptide-lipid overlay assay (lipid strips); assay type: binding; conditions: 100 pmol lipid spots, LL-37 0.04 mg/ml, 1 h room temperature, anti-LL-37 HRP antibody, qualitative
# Experimental: The lipid affinity of LL-37 was assessed using peptide-lipid overlay assays of commercially available lipid strips blotted with 100 pmol of biologically relevant lipids (Echelon Biosciences, Salt Lake City, UT), following the manufacturer’s instructions. Lipid strips were blocked with 1% fat-free milk in TBS (150 mM NaCl, 50 mM Tris-HCl, pH 7.6) for 1 h at room temperature and then incubated with LL-37 (0.04 mg/ml) dissolved in 10 mM NaHCO3, 100 mM NaCl, 5 mM sodium phosphate, pH 8, plus 1% fat-free milk in TBS for 1 h at room temperature. The lipid strips were first washed with TBS buffer three times, and then incubated overnight at 4 °C in a solution of TBS containing 1% fat free milk and the anti-LL-37 HRP-labelled antibody (Innovagen, Sweden) in a 1:2000 dilution. After being washed three times with TBS, the peptide was detected by chemoluminescence using the super-signal western femto maximum sensitivity substrate kit (Thermo Scientific, Pierce Biotechnology, Inc).
# [2] = Analytical ultracentrifugation (AUC), equilibrium sedimentation; assay type: physicochemical; conditions: 0.33 mg/ml (0.07 mM) in 50 mM phosphate buffer pH 7.2, 0.04% DDM, 18.000 rpm, 20°C, 230 nm; data not shown
# Source text: Supplementa ry mat eria l to the paper:
# Structural remodeling and oligomerization of human cathelicidin on membranes […]
# by Enea Sancho-V aello, Patrice François, Eve-Julie Bonetti, Hauke Lilie, Sebastian Finger, Fernando Gil-Ortiz, Davi d Gil -Carton, Kornelius Zeth
# Peptides, lipids and detergents
# All peptides used in our study were chemically synthesized and purchased from Peptide2.0(www.peptide20.com), Proteogenix (www.ProteoGenix.fr) or Genecust (www. gen ecust.com) at purities of higher than 95%. Detergents used in this study are N - o c t yl -β-D-glucoside(Apollo Scientific limited), N-D o d e c yl -β-D-maltoside (Apollo Scientific limited), N-dodecylphosphocholine(Affymetrix) and N-dodec yl-N,N-dimethylamine-N-ox ide(Aff ymetrix ). The lipids 1,2- dioleoyl-sn-gl yc e r o -3- phosphocholine (DOPC), 1,2- dioleoyl-s n gl yc e r o -3- phosphoglycerol(DOPG) and cardiolipin (CL) were purchased from Avanti P olarLipids, Inc. (Alab aster, A L, USA). […]
# Centrifugationruns were performed at 18.000 rpm and 20°C; data were collected at a wavelength of 230 nmusi ng a concentration of 0.33 mg/ml (0.07 mM) in 50 mM phosphate buffer, pH 7.2. […] The radial distribution of LL-37 at sedimentation equilibrium in the respective bufferwas linearized according to the Lamm equation 1and the slope dlnc/dr2 with c representingthe peptide concentration at the radial position r was determined experimentally. […]
# [3] = Oligomerization by size exclusion chromatography (SEC); assay type: physicochemical
# Experimental: The oligomeric state of the peptide in the absence and presence of detergents was characterized on Superdex75 10/300 GL column (GE Healthcare) at peptide concentrations of 0.7 (0.16 mM) or 3.7 mg/ml (0.83 mM) respectively. The column was equilibrated using buffer A containing 100 mM NaCl, 10 mM NaHCO3, 5 mM sodium phosphate, pH 6.8, for the detergent free sample. SEC in the presence of detergents was performed at 0.7 mg/ml (0.16 mM) of LL-37 in buffer A plus the following detergent concentrations: 0.2% LDAO (8.7 mM), 0.05% DDM (0.98 mM), 0.2% DPC (5.6 mM). Peptides were incubated with buffer A and buffer-detergent solutions for 30 minutes before 200 μl samples were loaded onto the column. The flow rate of the column was adjusted to 0.5 ml/min and all runs were performed at room temperature. The peptide retention time was monitored at 215 nm due to the absence of Trp and Tyr residues.
# [4] = Cryo-EM of small unilamellar lipid vesicles incubated with gold-labelled peptide; conditions: DOPC:DOPG (3:7) SUVs, peptide:lipid 1:250, 15 minutes
# Experimental: For the labeling of LL-37 with 1.4 nm nanogold particles (Nanoprobes, Inc), 200 µM of the S37C peptide were reduced using 5 mM of Dithiothreitol (DTT) in the presence of 5 mM EDTA and 100 mM sodium phosphate, pH 7, at room temperature for 1 hour while shaking. The excess of DTT was removed using a 3 kD-cutoff ultrafiltration cell (Amicon, Millipore). Nanogold at 6 nmol concentration was incubated with the peptide at room temperature for 2 hours while shaking. To remove the excess of nanogold, the mixture was loaded onto a Superdex 75 10/300 GL column (GE Healthcare) with 150 mM NaCl and 20 mM sodium phosphate, pH 7. The fractions containing the labeled peptide were concentrated using a 3 kD-cutoff (Amicon, Millipore) ultrafiltration device. The DOPC:DOPG (3:7) SUVs (small unilamellar vesicles) were prepared using a mini-extruder (Avanti Polar Lipids, Inc). Their size and homogeneity was checked using dynamic light scattering (DLS). DOPC:DOPG vesicles were treated with nanogold labeled LL-37 (ratio of peptide to lipid 1:250).
# E. coli K12 cells = assay: Cryo-electron microscopy of E. coli incubated with gold-labelled peptide; assay type: cell-based; conditions: E. coli K12, 18 µM (80 µg/ml) labelled peptide, 37 °C, 80 minutes
# Experimental: E. coli K12 cells were grown at 37 °C at 200 rpm up to an OD of 0.6, and labeled LL-37 nanogold was added to 1 ml culture to reach a final concentration of 18 µM (80 µg/ml). The cultures were further incubated at 37 °C while shaking at 300 rpm (Eppendorf Thermomixer, Hamburg, Germany). After 80 minutes, 200 μl of the sample were taken and cells were pelleted at 3000*g for 10 min at 4 °C. The cell pellet was resuspended using 15 μl of culture solution in order to concentrate the sample and reach a sufficiently high cell density for the visualization in the microscope.
compound,measurement,setting,value
CC[C@H](C)[C@H](NC(=O)[C@H](CCCCN)NC(=O)[C@H](CCC(=O)O)NC(=O)[C@H](CCCCN)NC(=O)[C@H](CO)NC(=O)[C@H](CCCCN)NC(=O)[C@H](CCCNC(=N)N)NC(=O)[C@H](Cc1ccccc1)NC(=O)[C@H](Cc1ccccc1)NC(=O)[C@H](CC(=O)O)NC(=O)CNC(=O)[C@H](CC(C)C)NC(=O)[C@@H](N)CC(C)C)C(=O)NCC(=O)N[C@@H](CCCCN)C(=O)N[C@@H](CCC(=O)O)C(=O)N[C@@H](Cc1ccccc1)C(=O)N[C@@H](CCCCN)C(=O)N[C@@H](CCCNC(=N)N)C(=O)N[C@H](C(=O)N[C@H](C(=O)N[C@@H](CCC(N)=O)C(=O)N[C@@H](CCCNC(=N)N)C(=O)N[C@H](C(=O)N[C@@H](CCCCN)C(=O)N[C@@H](CC(=O)O)C(=O)N[C@@H](Cc1ccccc1)C(=O)N[C@@H](CC(C)C)C(=O)N[C@@H](CCCNC(=N)N)C(=O)N[C@@H](CC(N)=O)C(=O)N[C@@H](CC(C)C)C(=O)N[C@H](C(=O)N1CCC[C@H]1C(=O)N[C@@H](CCCNC(=N)N)C(=O)N[C@H](C(=O)N[C@@H](CCC(=O)O)C(=O)N[C@@H](CO)C(=O)O)[C@@H](C)O)C(C)C)[C@@H](C)CC)C(C)C)[C@@H](C)CC [LL-37],Interaction with PS (lipid overlay),[1]; chemoluminescence,strong interactions
same,Binding to PC (lipid overlay),[1],does not bind
same,Interaction with CL (lipid overlay),[1],strong interactions
same,Interaction with PE (lipid overlay),[1],strong interactions
same,Interaction with PG (lipid overlay),[1],strong interactions
same,Interaction with PI (lipid overlay),[1],do not interact
same,Interaction with PI-4 (lipid overlay),[1],do not interact
same,"Interaction with PI-4,5 (lipid overlay)",[1],do not interact
same,Interaction with phosphatidic-acid (lipid overlay),[1],strong interactions
same,Interaction with sulfatide (lipid overlay),[1],strong interaction
same,"Recognition of PI-3, 4, 5 (lipid overlay)",[1],recognized
same,Molecular weight by AUC in DDM,[2],~ 28 kD
same,"Oligomeric state in SEC, dominating species","[3]; 0.16 mM (0.7 mg/ml) peptide, no detergent, Superdex75 10/300 GL, 100 mM NaCl, 10 mM NaHCO3, 5 mM sodium phosphate pH 6.8, room temperature, 215 nm",monomeric
same,Oligomeric state in SEC in the presence of detergents,"[3]; 0.16 mM peptide with 0.2% LDAO, 0.2% DPC or 0.05% DDM, 30 min pre-incubation, buffer pH 6.8, room temperature",tetramers or hexamers
same,Oligomeric state in SEC (retention time range),"[3]; 0.83 mM (3.7 mg/ml) peptide, no detergent, Superdex75 10/300 GL, buffer pH 6.8, room temperature, 215 nm",tetramer or hexamer
same,Molecular weight in SEC in the presence of detergents,"[3]; in the presence of DDM, DPC and LDAO",around 30 kD
"gold-labelled LL-37: S37C mutant of LL-37 labeled at the C-terminus with 1.4 nm nanogold particles (LLGDFFRKSKEKIGKEFKRIVQRIKDFLRNLVPRTEC; also: labeled at the C-terminus with 1.4 nm nanogold particles, attachment not given here; UniProt P49913 134-170, looked up, variant S37C)",Membrane perturbation of lipid vesicles (cryo-EM),[4],no significant membrane perturbation
same,Effect on E. coli membranes (cryo-EM),E. coli K12 cells,clear perforation of the outer but not of the inner membrane
LLGDFFRKSKEKIGKEFKRIVQRIKDF [LL-28],MIC against E. coli in the presence of detergent,E. coli,6 µg/mL
